Measured values reported in patent US10010539B2, “Pyrazole, triazole and tetrazole orexin receptor antagonists” (MERCK SHARP & DOHME CORP., priority 2014, dated 2018).

How the values were obtained:
human orexin-2 receptor = human orexin-2 receptor (Homo sapiens (Human), UniProt O43614); test: FLIPR Ca2+ Flux Assay, orexin-2 receptor (hOX2R FLIPR); format: cell-based; conditions: CHO cells expressing the human orexin-2 receptor; agonist 70 pM Ala-6,12 human orexin-A
Method: (§1) The utility of the compounds in accordance with the present invention as orexin receptor OX1R and/or OX2R antagonists may be readily determined without undue experimentation by methodology well known in the art, including the “FLIPR Ca^2+ Flux Assay” (Okumura et al., Biochem. Biophys. Res. Comm. 280:976-981, 2001). In a typical experiment the OX1 and OX2 receptor antagonistic activity of the compounds of the present invention was determined in accordance with the following experimental method. For intracellular calcium measurements, Chinese hamster ovary (CHO) cells expressing the rat orexin-1 receptor or the human orexin-2 receptor, are grown in Iscove's modified DMEM containing 2 mM L-glutamine, […], 1% hypoxanthine-thymidine supplement, 100 U/ml penicillin, 100 μg/ml streptomycin and 10% heat-inactivated fetal calf serum (FCS). The cells are seeded at 20,000 cells/well into Becton-Dickinson black 384-well clear bottom sterile plates coated with poly-D-lysine. All reagents were from GIBCO-Invitrogen Corp. The seeded plates are incubated overnight at 37° C. and 5% CO2. Ala-6,12 human orexin-A as the agonist is prepared as a 1 mM stock solution in 1% bovine serum albumin (BSA) and diluted in assay buffer (HBSS containing 20 mM HEPES, 0.1% BSA and 2.5 mM probenecid, pH7.4) for use in the assay at a final concentration of 70 pM. Test compounds are prepared as 10 mM stock solution in DMSO, then diluted in 384-well plates, first in DMSO, then assay buffer. On the day of the assay, cells are washed 3 times with 100 μl assay buffer and then incubated for 60 min (37° C., 5% CO2) in 60 μl assay buffer containing 1 μM Fluo-4AM ester, 0.02% pluronic acid, and 1% BSA. The dye loading solution is then aspirated and cells are washed 3 times with 100 μl assay buffer. 30 μl of that same buffer is left in each well. Within the Fluorescent Imaging Plate Reader (FLIPR, Molecular Devices), test compounds are added to the plate in a volume of 25 μl, incubated for 5 min and finally 25 μl of agonist is added. Fluorescence is measured for each well at 1 second intervals for 5 minutes and the height of each fluorescence peak is compared to the height of the fluorescence peak induced by 70 pM Ala-6,12 orexin-A with buffer in place of antagonist. For each antagonist, IC50 value (the concentration of compound needed to inhibit 50% of the agonist response) is determined. Alternatively, compound potency can be assessed by a radioligand binding assay (described in Bergman et. al. Bioorg. Med. Chem. Lett. 2008, 18, 1425-1430) in which the inhibition constant (Ki) is determined in membranes prepared from CHO cells expressing either the OX1 or OX2 receptor. The intrinsic orexin receptor antagonist activity of a compound which may be used in the present invention may be determined by these assays.

[1] = biological target: hOXIR (orexin-1 receptor) (Homo sapiens, UniProt O43613); test: FLIPR Ca2+ Flux Assay, orexin-1 receptor (hOXIR FLIPR); format: cell-based; conditions: CHO cells expressing the orexin-1 receptor (method text: rat; table head: hOXIR); agonist 70 pM Ala-6,12 human orexin-A
Method: as §1

human orexin-2 receptor, sequence (O43614 whole entry): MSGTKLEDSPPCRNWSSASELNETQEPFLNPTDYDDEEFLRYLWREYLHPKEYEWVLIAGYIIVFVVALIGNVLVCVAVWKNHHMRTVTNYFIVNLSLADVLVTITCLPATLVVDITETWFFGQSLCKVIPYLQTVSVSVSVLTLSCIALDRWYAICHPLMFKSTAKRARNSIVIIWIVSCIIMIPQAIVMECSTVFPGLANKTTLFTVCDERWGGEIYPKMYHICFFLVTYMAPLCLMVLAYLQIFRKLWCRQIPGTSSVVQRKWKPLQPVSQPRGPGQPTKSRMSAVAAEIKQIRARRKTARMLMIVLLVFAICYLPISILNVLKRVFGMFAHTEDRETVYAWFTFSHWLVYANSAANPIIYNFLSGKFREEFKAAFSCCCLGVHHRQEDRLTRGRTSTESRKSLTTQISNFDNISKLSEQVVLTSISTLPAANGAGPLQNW

## C[C@@H]1CC[C@@H](n2ncc(C(C)(C)O)n2)CN1C(=O)c1ccccc1[C@@H]1CC1(F)F [Example 22, 2-{2-[(3R,6R)-1-({2-[(1S)-2,2-difluorocyclopropyl]phenyl}carbonyl)-6-methylpiperidin-3-yl]-2H-1,2,3-triazol-4-yl}propan-2-ol]
Human orexin-2 receptor
  IC50: 8.5 nM
[1]
  IC50: 733 nM

## C[C@@H]1CC[C@@H](n2ncc(C(C)(C)O)n2)CN1C(=O)c1nccnc1-n1cccn1 [Example 43, 2-{2-[(3R,6R)-6-methyl-1-{[3-(1H-pyrazol-1-yl)pyrazin-2-yl]carbonyl}piperidin-3-yl]-2H-1,2,3-triazol-4-yl}propan-2-ol]
Human orexin-2 receptor
  IC50: 109 nM
[1]
  IC50: > 10000 nM

## C[C@@H]1CC[C@@H](n2ncc(C(C)(C)O)n2)CN1C(=O)c1ccc(F)cc1-n1nccn1 [Example 39, 2-{2-[(3R,6R)-1-{[4-fluoro-2-(2H-1,2,3-triazol-2-yl)phenyl]carbonyl}-6-methylpiperidin-3-yl]-2H-1,2,3-triazol-4-yl}propan-2-ol]
Human orexin-2 receptor
  IC50: 27.1 nM
[1]
  IC50: > 10000 nM

## Cc1nn([C@@H]2CC[C@@H](C)N(C(=O)c3cccnc3OCC(F)(F)F)C2)nc1C(C)(C)O [Example 68, 2-{5-mMethyl-2-[(3R,6R)-6-methyl-1-{[2-(2,2,2-trifluoroethoxy)pyridin-3-yl]carbonyl}piperidin-3-yl]-2H-1,2,3-triazol-4-yl}propan-2-ol]
Human orexin-2 receptor
  IC50: 6.9 nM
[1]
  IC50: 1520 nM

## C[C@@H]1CC[C@@H](n2ncc([C@H](O)C(F)(F)F)n2)CN1C(=O)c1ccccc1-n1nccn1 [Example 26, (2-(2H-1,2,3-triazol-2-yl)phenyl) ((2R,5R)-2-methyl-5-(4-((S)-2,2,2-trifluoro-1-hydroxyethyl)-2H-1,2,3-triazol-2-yl)piperidin-1-yl)methanone]
Human orexin-2 receptor
  IC50: 86.7 nM
[1]
  IC50: > 10000 nM

## C[C@@H]1CC[C@@H](n2cc(C(C)(C)O)cn2)CN1C(=O)c1cccnc1-c1ccccc1 [Example 92, 2-(1-{(3R,6R)-6-Methyl-1-[(2-phenylpyridin-3-yl)carbonyl]piperidin-3-yl}-1H-pyrazol-4-yl)propan-2-ol]
Human orexin-2 receptor
  IC50: 195 nM
[1]
  IC50: > 10000 nM

## C[C@@H]1CC[C@@H](n2cc(C(C)(C)O)cn2)CN1C(=O)c1ccccc1C1CC1 [Example 78, 2-(1-{(3R,6R)-1-[(2-Cyclopropylphenyl)carbonyl]-6-methylpiperidin-3-yl}-1H-pyrazol-4-yl)propan-2-ol]
Human orexin-2 receptor
  IC50: 25.5 nM
[1]
  IC50: > 10000 nM

## Cc1noc(-c2cc(F)ccc2C(=O)N2C[C@H](n3ncc(C(C)(C)O)n3)CC[C@H]2C)n1 [Example 41, 2-{2-[(3R,6R)-1-{[4-fluoro-2-(3-methyl-1,2,4-oxadiazol-5-yl)phenyl]carbonyl}-6-methylpiperidin-3-yl]-2H-1,2,3-triazol-4-yl}propan-2-ol]
Human orexin-2 receptor
  IC50: 173 nM
[1]
  IC50: > 10000 nM

## C[C@@H]1CC[C@@H](n2ncc(C(C)(C)O)n2)CN1C(=O)c1cc(F)ccc1-n1nccn1 [Example 38, 2-{2-[(3R,6R)-1-{[5-fluoro-2-(2H-1,2,3-triazol-2-yl)phenyl]carbonyl}-6-methylpiperidin-3-yl]-2H-1,2,3-triazol-4-yl}propan-2-ol]
Human orexin-2 receptor
  IC50: 27.5 nM
[1]
  IC50: > 10000 nM

## C[C@@H]1CC[C@@H](n2cc(C(C)(C)O)cn2)CN1C(=O)c1ccccc1OCC(F)F [Example 79, 2-{1-[(3R,6R)-1-{[2-(2,2-Difluoroethoxy)phenyl]carbonyl}-6-methylpiperidin-3-yl]-1H-pyrazol-4-yl}propan-2-ol]
Human orexin-2 receptor
  IC50: 127 nM
[1]
  IC50: > 10000 nM

## C[C@@H]1CC[C@@H](n2cc(C(C)(C)O)cn2)CN1C(=O)c1cccnc1-n1cccn1 [Example 90, 2-{1-[(3R,6R)-6-Methyl-1-{[2-(1H-pyrazol-1-yl)pyridin-3-yl]carbonyl}piperidin-3-yl]-1H-pyrazol-4-yl}propan-2-ol]
Human orexin-2 receptor
  IC50: 33.6 nM
[1]
  IC50: > 10000 nM

## C[C@@H]1CC[C@@H](n2ncc(C(C)(C)O)n2)CN1C(=O)c1ccccc1OC(F)F [Example 21, (2-(Difluoromethoxy)phenyl)((2R,5R)-5-(4-(2-hydroxypropan-2-yl)-2H-1,2,3-triazol-2-yl)-2-methylpiperidin-1-yl)methanone]
Human orexin-2 receptor
  IC50: 18 nM
[1]
  IC50: > 10000 nM
